Laboratory results reported in US20110230476A1, “PI3 KINASE INHIBITORS AND USES THEREOF” (AVILA THERAPEUTICS, INC., priority 2009, published 2011).

Tests used:
[1] = molecular target: T1, PI3Kα (p110α/p85α) (Homo sapiens, UniProt P42336); assay: HTRF assay, potency against active PI3Kα; type: biochemical; conditions: HTRF; [ATP]=50 μM, [di-C8-PIP2]=10 μM; 30 min pre-incubation; read-out: PI3Kα Inhibition
T1 construct: purchased BPS Bioscience (San Diego, Calif.) or Millipore (Billerica, Mass.)
In short: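 IC50 came from a variable-slope fit of % inhibition, calculated from the HTRF emission ratio relative to wells with and without enzyme. Reactions with the active enzyme complex ran 30-60 minutes at 25 °C after ATP addition before stop and detection reagents.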

[2] = molecular target: T2, PI3Kγ (p120γ) (Homo sapiens, UniProt P48736); assay: HTRF assay, potency against active PI3Kγ; type: biochemical; conditions: [ATP]=50 μM, [di-C8-PIP2]=10 μM, 30 min pre-incubation, read-out: PI3Kγ Inhibition
T2 construct: purchased BPS Bioscience (San Diego, Calif.) or Millipore (Billerica, Mass.)
In short: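 End-point competition HTRF: enzyme (p110β/p85α 0.75 nM; p120γ 2-2.5 nM) with 10 μM di-C8-PIP2 pre-incubated 30 min at 25° C with compound, then 50 μM ATP added for 30-60 min at 25° C. Stopped, detected after 1 and 18 h; IC50 from variable-slope fit.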

[3] = tested on: Phospho-Akt(Ser473); assay: Dose response in SKOV3 cells as determined by Western blot; type: cell-based; conditions: Homo sapiens, SK-OV-3, 1 hr, Phospho-Akt normalized to total Akt, read-out: Immunoblot
Description: Dose Response in SKOV3 Cells as Determined by Western Blot
SKOV3 cells were plated in SKOV3 Growth Media (DMEM supplemented with 10% FBS and pen/strep) at a density of 4×10^5 cells per well of 12 well plates. Twenty four hours later the media was removed and replaced with 1 ml media containing test compound and 0.1% DMSO and cells were returned to the incubator for 1 hr. At the end of the hour, the media was removed and the cells were washed with PBS, then lysed and scraped into 30 ul of Cell Extraction Buffer (Biosource, Camarillo, Calif.) plus Complete Protease Inhibitor and PhosStop Phosphatase Inhibitor (Roche, Indianapolis, Ind.).
Cell debris was spun down at 13,000×g for 1 minute and the supernatant was taken as the cell lysate. Protein concentration of the lysate was determined by BCA Assay (Pierce Biotechnology, Rockford, Ill.) and 50 ug of protein was loaded per well onto a NuPAGE Novex 4-12% Bis-Tris gel (Invitrogen, Carlsbad, Calif.) then transferred to Immobilon PVDF-FL (Millipore, Billerica, Mass.).
The blot was blocked in Odyssey Blocking Buffer (Li-Cor Biosciences, Lincoln, Nebr.) for 1 hr then incubated overnight at 4° C. with mouse anti-Akt (#2920) and rabbit anti-Phospho-Akt(Ser473) (#9271)(Cell Signaling Technology, Boston, Mass.) antibodies, both diluted 1:1000 in PBS/Odyssey Buffer (1:1)+0.1% Tween-20. The blots were washed 3 times 5 minutes in PBS+0.2% Tween-20 then incubated for 1 hr at room temperature with fluorescently labeled secondary antibodies (Li-Cor) diluted 1:10000 in PBS/Odyssey Buffer (1:1)+0.1% Tween-20.
The blots were washed 2 times for 5 minutes in PBS+0.2% Tween-20, once in distilled water, then scanned on an Odyssey machine (Li-Cor). Band intensity was determined using the Odyssey software and Phopho-Akt signal was normalized to total Akt within samples, then expressed as a percentage of the untreated Phospho-Akt signal.

[4] = tested on: Phospho-Akt(Ser473); assay: Dose response in SKOV3 cells as determined by in-cell Western; type: cell-based; conditions: Homo sapiens, SK-OV-3; SKOV3 cells, 1 hr; read-out: pAKT Inhibition in cell Western
In short: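 SKOV3 cells treated with compound for 1 hr, then formaldehyde-fixed, permeabilised and stained overnight for phospho-Akt(Ser473) with anti-tubulin as a reference. Infrared secondary antibodies read at 680 and 800 nm channels by in-cell Western imaging.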

[5] = tested on: SKOV3 cells; assay: GI50 determinations in SKOV3 cells; type: cell-based; conditions: Homo sapiens, SK-OV-3; SKOV3 cells, 96 hours, Cell Titer Glo
Description: GI50 Determinations in SKOV3 Cells
A standard curve ranging from 10,000 to 50,000 cells was set up in a separate plate and allowed to adhere to the plate for 4-6 hours, at which time the plate was developed using Cell Titer-Glow (Promega, Madison, Wis.) according to manufacturer's instructions.
The next morning, 3-fold compound dilutions ranging from 10,000 nM to 40 nM were prepared in Proliferation Media containing 1% DMSO. 20 ul of each dilution was added to the SKOV3 cells plated the previous day resulting in a dose response curve from 1000 nM to 4 nM. The cells were incubated for 96 hours and then developed with Cell Titer Glo.
The cell numbers at the end of the assay were determined using the standard curve generated at the start of the assay. Growth inhibition was calculated using the following formulas and GI50s were determined by plotting the % growth inhibition vs. Log compound concentration in GraphPad.
%growth=100×(T−T0)/(C−T0)
T=Cell Number at end of assay T0=Cell Number at start of assay (5000) C=Number of cells in DMSO controls at end of assay
%growth inhibition=100−%growth

[6] = molecular target: PI3Kα (Homo sapiens, UniProt P42336); assay: Mass spectrometry of intact PI3Kα (Millipore, 14-602), 1 hr incubation; type: binding; set-up: purchased Millipore 14-602; conditions: 10× fold excess of compound, MALDI
Description: Mass Spectrometry for PI3K
Aliquots (5 μl) of the samples were diluted with 15 μl of 0.2% TFA prior to micro C4 ZipTipping directly onto the MALDI target using Sinapinic acid as the desorption matrix (10 mg/ml in 0.1% TFA:Acetonitrile 50:50).

T2 sequence (P48736 whole entry): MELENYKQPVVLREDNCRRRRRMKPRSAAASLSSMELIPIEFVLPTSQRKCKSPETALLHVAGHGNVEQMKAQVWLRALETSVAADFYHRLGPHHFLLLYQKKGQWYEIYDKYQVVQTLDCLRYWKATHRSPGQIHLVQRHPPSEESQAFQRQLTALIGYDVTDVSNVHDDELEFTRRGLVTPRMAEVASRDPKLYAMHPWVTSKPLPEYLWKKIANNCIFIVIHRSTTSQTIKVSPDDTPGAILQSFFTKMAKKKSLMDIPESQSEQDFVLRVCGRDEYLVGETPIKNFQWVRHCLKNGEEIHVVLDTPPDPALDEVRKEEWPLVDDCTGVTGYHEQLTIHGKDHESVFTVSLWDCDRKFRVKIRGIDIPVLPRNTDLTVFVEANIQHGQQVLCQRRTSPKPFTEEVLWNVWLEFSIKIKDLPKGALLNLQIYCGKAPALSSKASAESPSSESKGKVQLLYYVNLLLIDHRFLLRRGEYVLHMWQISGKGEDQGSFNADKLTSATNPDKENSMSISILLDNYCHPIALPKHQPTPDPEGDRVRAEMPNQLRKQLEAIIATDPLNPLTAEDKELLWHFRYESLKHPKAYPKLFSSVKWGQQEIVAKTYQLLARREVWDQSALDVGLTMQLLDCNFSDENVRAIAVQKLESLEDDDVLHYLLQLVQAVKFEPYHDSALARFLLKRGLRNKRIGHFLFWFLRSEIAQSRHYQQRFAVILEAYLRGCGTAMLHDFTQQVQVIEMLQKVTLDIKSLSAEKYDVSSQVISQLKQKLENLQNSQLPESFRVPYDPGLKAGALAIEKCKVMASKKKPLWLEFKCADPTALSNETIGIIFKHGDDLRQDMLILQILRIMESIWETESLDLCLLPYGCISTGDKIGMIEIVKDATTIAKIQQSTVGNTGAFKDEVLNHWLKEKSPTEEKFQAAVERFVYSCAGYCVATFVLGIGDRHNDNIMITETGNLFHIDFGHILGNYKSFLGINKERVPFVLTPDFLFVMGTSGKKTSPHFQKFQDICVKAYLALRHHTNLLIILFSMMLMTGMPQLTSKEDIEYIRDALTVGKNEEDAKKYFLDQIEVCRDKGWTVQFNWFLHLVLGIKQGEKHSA
T1 sequence (P42336 whole entry): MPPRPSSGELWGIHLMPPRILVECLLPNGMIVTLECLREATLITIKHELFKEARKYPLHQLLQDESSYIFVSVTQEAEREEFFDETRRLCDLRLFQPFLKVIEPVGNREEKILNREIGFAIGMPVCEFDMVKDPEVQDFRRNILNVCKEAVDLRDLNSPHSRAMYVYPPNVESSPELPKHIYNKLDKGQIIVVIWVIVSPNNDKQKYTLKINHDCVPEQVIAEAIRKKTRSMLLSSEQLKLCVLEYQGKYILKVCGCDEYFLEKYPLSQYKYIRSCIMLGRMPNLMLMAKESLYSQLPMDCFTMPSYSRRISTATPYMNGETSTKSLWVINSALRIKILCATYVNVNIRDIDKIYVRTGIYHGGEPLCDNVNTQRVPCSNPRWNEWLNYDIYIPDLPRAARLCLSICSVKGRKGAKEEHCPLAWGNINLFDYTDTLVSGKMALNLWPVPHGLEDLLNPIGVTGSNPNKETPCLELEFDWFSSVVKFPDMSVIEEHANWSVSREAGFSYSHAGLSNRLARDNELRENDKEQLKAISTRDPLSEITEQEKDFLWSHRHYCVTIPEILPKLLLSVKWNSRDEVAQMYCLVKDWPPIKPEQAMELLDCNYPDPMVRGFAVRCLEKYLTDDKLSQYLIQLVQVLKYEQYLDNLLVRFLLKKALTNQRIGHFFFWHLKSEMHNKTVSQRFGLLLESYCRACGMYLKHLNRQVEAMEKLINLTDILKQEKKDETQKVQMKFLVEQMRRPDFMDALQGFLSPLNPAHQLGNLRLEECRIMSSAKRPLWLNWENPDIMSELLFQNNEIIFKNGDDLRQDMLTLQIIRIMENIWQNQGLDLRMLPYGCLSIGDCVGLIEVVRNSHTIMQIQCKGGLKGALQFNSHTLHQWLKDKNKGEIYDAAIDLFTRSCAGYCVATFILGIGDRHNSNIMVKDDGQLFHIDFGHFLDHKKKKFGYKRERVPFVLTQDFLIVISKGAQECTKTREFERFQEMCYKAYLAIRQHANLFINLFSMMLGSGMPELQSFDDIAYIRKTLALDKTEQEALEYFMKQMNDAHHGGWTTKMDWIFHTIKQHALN
T1 sequence (P27986 whole entry partner): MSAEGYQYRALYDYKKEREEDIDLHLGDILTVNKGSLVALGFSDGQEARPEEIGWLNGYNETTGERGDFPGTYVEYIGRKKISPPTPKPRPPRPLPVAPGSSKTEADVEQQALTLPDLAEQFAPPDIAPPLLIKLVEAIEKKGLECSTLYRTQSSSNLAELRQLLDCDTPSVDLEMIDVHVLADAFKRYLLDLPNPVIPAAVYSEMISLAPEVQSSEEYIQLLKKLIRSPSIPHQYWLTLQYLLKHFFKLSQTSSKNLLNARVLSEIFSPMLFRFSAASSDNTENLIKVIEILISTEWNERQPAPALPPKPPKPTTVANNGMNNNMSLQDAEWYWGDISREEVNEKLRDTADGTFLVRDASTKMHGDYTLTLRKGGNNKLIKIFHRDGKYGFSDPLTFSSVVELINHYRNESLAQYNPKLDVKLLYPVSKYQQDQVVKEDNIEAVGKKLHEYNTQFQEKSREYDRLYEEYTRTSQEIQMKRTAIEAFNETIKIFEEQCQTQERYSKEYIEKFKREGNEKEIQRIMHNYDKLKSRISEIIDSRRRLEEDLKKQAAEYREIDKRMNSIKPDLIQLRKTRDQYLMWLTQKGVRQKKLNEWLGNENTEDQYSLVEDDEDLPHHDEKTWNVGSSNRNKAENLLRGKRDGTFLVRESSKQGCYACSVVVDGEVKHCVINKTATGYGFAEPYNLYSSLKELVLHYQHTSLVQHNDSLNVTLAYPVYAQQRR
PI3Kα, sequence (P42336 whole entry): as the sequence (P42336 whole entry) above
PI3Kα, sequence (P27986 whole entry partner): as the sequence (P27986 whole entry partner) above

C=C(C)C(=O)CCCC(=O)N1CCN(Cc2cc3nc(-c4cccc5[nH]ncc45)nc(N4CCOCC4)c3s2)CC1 [II-a-14]
IC50 [1]: 10 to 100 nM
IC50 [2]: > 1000 nM
EC50 [3]: 10 to 100 nM
EC50 [4]: ≤ 10 nM

C/C=C/C(=O)CCCC(=O)N1CCN(Cc2cc3nc(-c4cccc5[nH]ncc45)nc(N4CCOCC4)c3s2)CC1 [II-a-22, (E)-1-(4-((2-(1H-indazol-4-yl)-4-morpholinothieno[3,2-d]pyrimidin-6-yl)methyl)piperazin-1-yl)oct-6-ene-1,5-dione]
IC50 [1]: 10 to 100 nM
IC50 [2]: > 1000 nM
EC50 [3]: 10 to 100 nM

C=C(CC)C(=O)CCC(=O)N1CCN(Cc2cc3nc(-c4cccc5[nH]ncc45)nc(N4CCOCC4)c3s2)CC1 [II-a-86, 1-(4-((2-(1H-indazol-4-yl)-4-morpholinothieno[3,2-d]pyrimidin-6-yl)methyl)piperazin-1-yl)-5-methyleneheptane-1,4-dione]
IC50 [1]: 10 to 100 nM
EC50 [4]: ≤ 10 nM
GI50 [5]: 10 to 100 nM

C=CC(=O)Nc1ccc(C(=O)N2CCN(C(=O)c3cc4nc(-c5cccc6[nH]ncc56)nc(N5CCOCC5)c4s3)CC2)cc1 [II-a-143, N-(4-(4-(2-(1H-indazol-4-yl)-4-morpholinothieno[3,2-d]pyrimidine-6-carbonyl)piperazine-1-carbonyl)phenyl)acrylamide]
IC50 [1]: 100 to 1000 nM
EC50 [4]: ≤ 10 nM
GI50 [5]: 100 to 1000 nM

O=C(/C=C(/c1ccccc1)C(F)(F)F)CCC(=O)N1CCN(Cc2cc3nc(-c4cccc5[nH]ncc45)nc(N4CCOCC4)c3s2)CC1 [II-a-158, (Z)-1-(4-((2-(1H-indazol-4-yl)-4-morpholinothieno[3,2-d]pyrimidin-6-yl)methyl)piperazin-1-yl)-7,7,7-trifluoro-6-phenylhept-5-ene-1,4-dione]
IC50 [1]: 10 to 100 nM
GI50 [5]: 100 to 1000 nM

C=CC(=O)Nc1cc(C(=O)N2CC=C(c3cc4nc(-c5cnc(N)nc5)nc(N5CCOCC5)c4s3)CC2)ccc1Cl [II-a-159, N-(5-(4-(2-(2-aminopyrimidin-5-yl)-4-morpholinothieno[3,2-d]pyrimidin-6-yl)-1,2,3,6-tetrahydropyridine-1-carbonyl)-2-chlorophenyl)acrylamide]
IC50 [1]: 10 to 100 nM
GI50 [5]: 100 to 1000 nM

O=C(/C=C/c1ccccn1)CCC(=O)NCC12CCC(c3cc4nc(-c5cccc6[nH]ncc56)nc(N5CCOCC5)c4s3)(CC1)OC2 [II-a-163, (E)-N-((1-(2-(1H-indazol-4-yl)-4-morpholinothieno[3,2-d]pyrimidin-6-yl)-2-oxabicyclo[2.2.2]octan-4-yl)methyl)-4-oxo-6-(pyridin-2-yl)hex-5-enamide]
IC50 [1]: > 1000 nM
EC50 [4]: 10 to 100 nM
GI50 [5]: 100 to 1000 nM

C=CC(=O)Nc1ccc(C(=O)N2CC=C(c3cc4nc(-c5cnc(N)nc5)cc(N5CCOCC5)c4s3)CC2)cc1 [II-g-2, N-(4-(4-(5-(2-aminopyrimidin-5-yl)-7-morpholinothieno[3,2-b]pyridin-2-yl)-1,2,3,6-tetrahydropyridine-1-carbonyl)phenyl)acrylamide]
IC50 [1]: 100 to 1000 nM
IC50 [2]: 100 to 1000 nM
EC50 [4]: ≤ 10 nM
GI50 [5]: 100 to 1000 nM

CC(C)=CC(=O)CCCC(=O)N1CC=C(c2cc3nc(-c4cnc(N)nc4)cc(N4CCOCC4)c3s2)CC1 [II-g-3, 1-(4-(5-(2-aminopyrimidin-5-yl)-7-morpholinothieno[3,2-b]pyridin-2-yl)-5,6-dihydropyridin-1(2H)-yl)-7-methyloct-6-ene-1,5-dione]
IC50 [1]: 100 to 1000 nM
IC50 [2]: 100 to 1000 nM
EC50 [3]: 100 to 1000 nM
EC50 [4]: ≤ 10 nM

C=CC(=O)Nc1ccc(C(=O)NCCOc2ccc3c(c2OC)N=C(NC(=O)c2cccnc2)N2CCN=C32)cc1 [IX-5, N-(8-(2-(4-acrylamidobenzamido)ethoxy)-7-methoxy-2,3-dihydroimidazo[1,2-c]quinazolin-5-yl)nicotinamide]
IC50 [1]: 10 to 100 nM
GI50 [5]: 10 to 100 nM

C=CC(=O)Nc1ccc(C(=O)N2CCC(n3ncc4c(N5CCOCC5)nc(-c5ccc(NC(=O)NC)cc5)nc43)CC2)cc1 [VII-8, N-(4-(4-(6-(4-(3-methylureido)phenyl)-4-morpholino-1H-pyrazolo[3,4-d]pyrimidin-1-yl)piperidine-1-carbonyl)phenyl)acrylamide]
IC50 [1]: 100 to 1000 nM
EC50 [4]: 100 to 1000 nM
GI50 [5]: 100 to 1000 nM

C=CC(=O)Nc1ccc(CC(=O)N2CCC(n3ncc4c(N5CCOCC5)nc(-c5ccc(NC(=O)NC)cc5)nc43)CC2)cc1 [VII-9, N-(4-(2-(4-(6-(4-(3-methylureido)phenyl)-4-morpholino-1H-pyrazolo[3,4-d]pyrimidin-1-yl)piperidin-1-yl)-2-oxoethyl)phenyl)acrylamide]
IC50 [1]: 100 to 1000 nM
EC50 [4]: 100 to 1000 nM
GI50 [5]: 100 to 1000 nM

CNC(=O)Nc1ccc(-c2nc(N3CCOCC3)c3cnn(C4CCN(C(=O)CCC(=O)/C=C/c5ccccc5)CC4)c3n2)cc1 [VII-10, (E)-1-methyl-3-(4-(4-morpholino-1-(1-(4-oxo-6-phenylhex-5-enoyl)piperidin-4-yl)-1H-pyrazolo[3,4-d]pyrimidin-6-yl)phenyl)urea]
IC50 [1]: 100 to 1000 nM
GI50 [5]: 10 to 100 nM

CNC(=O)Nc1ccc(-c2nc(N3CCOCC3)c3cnn(C4CCN(C(=O)CCCC(=O)/C=C/c5ccccc5)CC4)c3n2)cc1 [VII-11, (E)-1-methyl-3-(4-(4-morpholino-1-(1-(5-oxo-7-phenylhept-6-enoyl)piperidin-4-yl)-1H-pyrazolo[3,4-d]pyrimidin-6-yl)phenyl)urea]
IC50 [1]: 100 to 1000 nM
GI50 [5]: 100 to 1000 nM

C=CC(=O)Nc1ccc(CC(=O)N2CCC(n3ncc4c(N5CCOCC5)nc(-c5cnc(N)nc5)nc43)CC2)cc1 [VII-13, N-(4-(2-(4-(6-(2-aminopyrimidin-5-yl)-4-morpholino-1H-pyrazolo[3,4-d]pyrimidin-1-yl)piperidin-1-yl)-2-oxoethyl)phenyl)acrylamide]
IC50 [1]: 100 to 1000 nM
EC50 [3]: 10 to 100 nM
EC50 [4]: 10 to 100 nM

CC(C)=CC(=O)c1ccc(CCNC(=O)c2cc(-c3cnc(N)nc3C)nc(N3CCOCC3)c2)cc1 [XII-15, 2-(2-amino-4-methylpyrimidin-5-yl)-N-(4-(3-methylbut-2-enoyl)phenethyl)-6-morpholinoisonicotinamide]
IC50 [1]: 100 to 1000 nM
covalent modification of PI3Kα [6]: similarly modify

CC(C)=CC(=O)CCc1ccc(C#Cc2cc(-c3cnc(N)nc3C)nc(N3CCOCC3)c2)cc1 [XII-18, 1-(4-((2-(2-amino-4-methylpyrimidin-5-yl)-6-morpholinopyridin-4-yl)ethynyl)phenyl)-5-methylhex-4-en-3-one]
IC50 [1]: > 1000 nM
covalent modification of PI3Kα [6]: similarly modify
